Assay results taken from ChEMBL document CHEMBL1201862, “PubChem BioAssay data set” (2004).
The source made the active and inactive calls.

Key:
Ion channel NompC = Ion channel NompC (Danio rerio, UniProt Q7T1G6); experiment: Fluorescence counterscreen assay for TRPML3 agonists: dose response cell-based high-throughput screening assay to identify agonists of the transient receptor potential channel N1 (TRPN1). [Related pubchem assays: 1526, 1424, 1448 ]; assay type: functional
Cytochrome P450 1A2 = biological target: T1, Cytochrome P450 1A2 (Homo sapiens, UniProt P05177);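 further: PubChem cytochrome P450 panel assay, CYP1A2 panel member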
T1 sequence (P05177 whole entry): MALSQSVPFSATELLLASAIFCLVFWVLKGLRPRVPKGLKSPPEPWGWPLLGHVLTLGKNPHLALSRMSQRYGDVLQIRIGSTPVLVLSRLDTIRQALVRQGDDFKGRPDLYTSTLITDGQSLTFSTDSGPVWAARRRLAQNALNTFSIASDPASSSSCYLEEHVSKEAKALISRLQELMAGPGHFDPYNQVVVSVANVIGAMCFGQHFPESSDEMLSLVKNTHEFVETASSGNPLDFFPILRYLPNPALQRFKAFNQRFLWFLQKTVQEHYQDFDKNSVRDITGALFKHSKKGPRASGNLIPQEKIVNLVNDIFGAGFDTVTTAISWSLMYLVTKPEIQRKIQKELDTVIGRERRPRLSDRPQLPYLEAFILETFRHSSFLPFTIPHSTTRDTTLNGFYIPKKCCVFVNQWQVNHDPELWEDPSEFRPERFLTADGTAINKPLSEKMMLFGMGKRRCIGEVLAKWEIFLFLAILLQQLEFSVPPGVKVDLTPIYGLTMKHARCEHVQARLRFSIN

Mucolipin-3 = biological target: T2, Mucolipin-3 (Homo sapiens, UniProt Q8TDD5); experiment: Dose response cell-based high-throughput screening assay for agonists of the transient receptor potential channel ML3 (TRPML3). [Related pubchem assays: 1526, 1424, 1448 ]; assay type: functional
T2 sequence (Q8TDD5 whole entry): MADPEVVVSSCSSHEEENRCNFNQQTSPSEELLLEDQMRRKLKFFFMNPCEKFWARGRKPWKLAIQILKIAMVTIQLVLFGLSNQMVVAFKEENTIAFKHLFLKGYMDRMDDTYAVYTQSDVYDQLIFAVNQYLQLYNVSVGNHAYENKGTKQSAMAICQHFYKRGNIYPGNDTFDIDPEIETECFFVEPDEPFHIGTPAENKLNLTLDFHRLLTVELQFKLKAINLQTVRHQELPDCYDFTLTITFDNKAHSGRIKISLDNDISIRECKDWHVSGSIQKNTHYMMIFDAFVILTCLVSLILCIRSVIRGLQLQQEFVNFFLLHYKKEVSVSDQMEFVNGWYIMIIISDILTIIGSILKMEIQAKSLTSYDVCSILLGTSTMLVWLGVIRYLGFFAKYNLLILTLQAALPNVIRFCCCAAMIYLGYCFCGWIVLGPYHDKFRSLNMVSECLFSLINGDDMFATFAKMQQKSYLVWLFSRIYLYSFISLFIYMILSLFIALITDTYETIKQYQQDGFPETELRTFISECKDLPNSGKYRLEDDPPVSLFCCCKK

[1] = A High Throughput Confirmatory Assay used to Identify Novel Compounds that Inhibit Mycobacterium Tuberculosis in the absence of Glycerol.; assay type: functional
[2] = viability loss of HPDE-C7K cells – cell-based, fluorescence, HTS, primary screen (AID 431); assay type: functional; conditions: Homo sapiens
[3] = biological target: T3, Heat shock factor protein 1 (Mus musculus, UniProt P38532); experiment: enhancement of HSF1-driven luciferase signal – cell-based, NIH3T3, luminescence, dose retest, confirmation (AID 435004); assay type: functional;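 further: stress induced by proteasome inhibitor MG132 added 30 min after compound; luciferase reporter driven by HSF1 response element in NIH3T3 cells; actives raise luminescence as potentiators of the MG132 stress response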
T3 sequence (P38532 whole entry): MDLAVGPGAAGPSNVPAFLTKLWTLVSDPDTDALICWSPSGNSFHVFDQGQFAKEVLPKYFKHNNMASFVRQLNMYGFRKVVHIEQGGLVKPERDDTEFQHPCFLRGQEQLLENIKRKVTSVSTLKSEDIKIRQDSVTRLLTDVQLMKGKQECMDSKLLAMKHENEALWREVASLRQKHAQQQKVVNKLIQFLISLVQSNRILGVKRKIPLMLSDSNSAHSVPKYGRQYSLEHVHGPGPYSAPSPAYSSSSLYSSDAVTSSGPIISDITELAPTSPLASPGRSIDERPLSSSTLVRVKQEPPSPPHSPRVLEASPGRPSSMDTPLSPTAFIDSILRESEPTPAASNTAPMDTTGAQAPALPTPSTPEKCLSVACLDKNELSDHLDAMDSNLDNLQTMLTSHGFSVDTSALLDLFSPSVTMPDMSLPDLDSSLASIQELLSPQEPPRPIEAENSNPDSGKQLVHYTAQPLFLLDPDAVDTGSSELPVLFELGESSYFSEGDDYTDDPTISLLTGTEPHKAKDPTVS

[4] = biological target: T4, Replicative DNA helicase DnaB (Mycobacterium tuberculosis, UniProt P9WMR3); experiment: DnaB intein splicing inhibitors, dose response, biochemical, cell-free fluorescence (AID 449749); assay type: functional
T4 sequence (P9WMR3 whole entry): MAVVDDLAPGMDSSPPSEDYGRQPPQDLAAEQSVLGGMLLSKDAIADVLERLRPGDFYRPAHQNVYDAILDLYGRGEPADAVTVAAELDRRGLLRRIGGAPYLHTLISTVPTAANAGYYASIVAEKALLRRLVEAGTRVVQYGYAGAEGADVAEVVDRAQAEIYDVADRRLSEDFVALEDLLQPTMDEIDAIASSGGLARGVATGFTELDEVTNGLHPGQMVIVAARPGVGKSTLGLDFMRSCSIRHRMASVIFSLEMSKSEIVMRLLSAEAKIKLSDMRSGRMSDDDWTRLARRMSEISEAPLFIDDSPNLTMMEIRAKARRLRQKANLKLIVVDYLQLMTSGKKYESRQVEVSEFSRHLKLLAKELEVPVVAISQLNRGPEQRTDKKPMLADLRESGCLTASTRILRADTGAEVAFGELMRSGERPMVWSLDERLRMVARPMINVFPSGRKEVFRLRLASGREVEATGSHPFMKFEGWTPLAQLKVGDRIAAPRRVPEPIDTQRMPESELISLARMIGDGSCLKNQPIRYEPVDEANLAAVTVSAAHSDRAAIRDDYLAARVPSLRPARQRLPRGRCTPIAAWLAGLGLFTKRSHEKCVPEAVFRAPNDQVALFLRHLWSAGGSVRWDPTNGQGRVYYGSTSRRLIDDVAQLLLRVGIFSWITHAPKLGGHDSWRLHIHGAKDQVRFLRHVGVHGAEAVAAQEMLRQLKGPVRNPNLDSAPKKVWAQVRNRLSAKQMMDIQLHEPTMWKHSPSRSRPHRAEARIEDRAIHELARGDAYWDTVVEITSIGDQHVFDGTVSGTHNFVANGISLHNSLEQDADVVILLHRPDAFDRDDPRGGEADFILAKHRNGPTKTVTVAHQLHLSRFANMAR

Protein RecA = biological target: T5, Protein RecA (Mycobacterium tuberculosis, UniProt P9WHJ3); experiment: Fluorescence Cell-Free Homogeneous Dose Retest to Identify Inhibitors of RecA-Intein Splicing Activity. [Related pubchem assays (depositor defined):AID2097, AID2223, AID489010, AID492950]; assay type: functional
T5 sequence (P9WHJ3 whole entry): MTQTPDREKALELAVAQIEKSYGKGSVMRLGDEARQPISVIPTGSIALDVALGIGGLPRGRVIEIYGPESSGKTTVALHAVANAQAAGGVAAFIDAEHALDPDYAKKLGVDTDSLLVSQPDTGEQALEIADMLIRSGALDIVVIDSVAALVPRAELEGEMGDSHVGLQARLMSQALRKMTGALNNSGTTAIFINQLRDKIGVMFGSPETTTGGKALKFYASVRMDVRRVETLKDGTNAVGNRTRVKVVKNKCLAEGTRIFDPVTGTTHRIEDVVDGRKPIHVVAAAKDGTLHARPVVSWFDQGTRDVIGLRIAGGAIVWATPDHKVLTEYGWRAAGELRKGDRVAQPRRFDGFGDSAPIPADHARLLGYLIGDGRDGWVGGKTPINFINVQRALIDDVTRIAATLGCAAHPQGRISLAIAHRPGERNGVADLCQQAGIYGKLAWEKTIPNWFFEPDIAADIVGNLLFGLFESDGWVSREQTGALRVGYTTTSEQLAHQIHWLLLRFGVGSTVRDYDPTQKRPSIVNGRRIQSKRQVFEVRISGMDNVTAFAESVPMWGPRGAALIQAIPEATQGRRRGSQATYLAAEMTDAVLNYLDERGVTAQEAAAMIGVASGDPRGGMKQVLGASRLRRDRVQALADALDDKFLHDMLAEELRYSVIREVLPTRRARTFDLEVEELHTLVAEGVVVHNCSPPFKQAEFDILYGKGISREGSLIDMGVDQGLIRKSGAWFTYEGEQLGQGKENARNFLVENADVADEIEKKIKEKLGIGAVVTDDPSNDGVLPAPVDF

[5] = HPDE-C7 pancreatic duct cell viability loss – fluorescence, HTS (AID 430); assay type: functional, cell-based; conditions: Homo sapiens
[6] = biological target: T6, Polyadenylate-binding protein 1 (Homo sapiens, UniProt P11940); experiment: MLLE domain peptide-binding blockers, IC50 – biochemical, fluorescence polarization, FITC-PAM2 peptide, dose response (AID 602259); assay type: functional; conditions: read-out: IC50_Mean
[7] = biological target: T6, Polyadenylate-binding protein 1; experiment: MLLE binding blockers, Cy5 peptide tracer – biochemical, fluorescence polarization, Cy5-PAM2 peptide, secondary, miRNA deadenylation inhibitor project, dose response (AID 602260); assay type: functional; conditions: read-out: IC50_Mean
[8] = viability of uninfected HEp-2 cells – cell-based, HTS, cytotoxicity control for RSV inhibitor project, dose response (AID 2410); assay type: functional; conditions: human respiratory syncytial virus
[9] = MIN6 cell viability loss – mouse insulinoma, cytotoxicity control, dose response (AID 2122); assay type: functional;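 further: confirmatory high-throughput counterscreen run to flag cytotoxic compounds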
[10] = decrease of insulin promoter-GFP reporter – imaging, high-content screening, mouse beta cells (AID 1628); assay type: functional; conditions: MIN6
[11] = biological target: Peroxisome proliferator-activated receptor gamma/Nuclear receptor coactivator 2 (Homo sapiens, UniProt P37231); assay type: functional;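 further: agonist potency for raising coactivator recruitment to the receptor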
[12] = A Cell Based Secondary Assay To Explore Cytotoxicity of Compounds that Sensitize Mycobacterium Tuberculosis to Beta-Lactam Antibiotics.; assay type: functional
[13] = biological target: Peroxisome proliferator-activated receptor gamma/Nuclear receptor coactivator 1 (Homo sapiens, UniProt P37231); assay type: functional;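 further: agonist potency as compounds enhance coactivator SRC-1 recruitment to PPARgamma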
[14] = biological target: Peroxisome proliferator-activated receptor gamma/Nuclear receptor coactivator 3 (Homo sapiens, UniProt P37231); assay type: functional;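 further: agonist potency for raising coactivator recruitment to the receptor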
[15] = microbe, parasite or virus in culture; assay type: functional; conditions: Mycobacterium tuberculosis
[16] = biological target: T7, Short transient receptor potential channel 4 (Mus musculus, UniProt Q9QUQ5); experiment: block of DAMGO-driven TRPC4 calcium entry – cell-based, HEK293 TRPC4/mu-opioid, Fluo-4 calcium, dose response (AID 434942); assay type: functional;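 further: potency of inhibitors blocking the TRPC4 calcium response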
T7 sequence (Q9QUQ5 whole entry): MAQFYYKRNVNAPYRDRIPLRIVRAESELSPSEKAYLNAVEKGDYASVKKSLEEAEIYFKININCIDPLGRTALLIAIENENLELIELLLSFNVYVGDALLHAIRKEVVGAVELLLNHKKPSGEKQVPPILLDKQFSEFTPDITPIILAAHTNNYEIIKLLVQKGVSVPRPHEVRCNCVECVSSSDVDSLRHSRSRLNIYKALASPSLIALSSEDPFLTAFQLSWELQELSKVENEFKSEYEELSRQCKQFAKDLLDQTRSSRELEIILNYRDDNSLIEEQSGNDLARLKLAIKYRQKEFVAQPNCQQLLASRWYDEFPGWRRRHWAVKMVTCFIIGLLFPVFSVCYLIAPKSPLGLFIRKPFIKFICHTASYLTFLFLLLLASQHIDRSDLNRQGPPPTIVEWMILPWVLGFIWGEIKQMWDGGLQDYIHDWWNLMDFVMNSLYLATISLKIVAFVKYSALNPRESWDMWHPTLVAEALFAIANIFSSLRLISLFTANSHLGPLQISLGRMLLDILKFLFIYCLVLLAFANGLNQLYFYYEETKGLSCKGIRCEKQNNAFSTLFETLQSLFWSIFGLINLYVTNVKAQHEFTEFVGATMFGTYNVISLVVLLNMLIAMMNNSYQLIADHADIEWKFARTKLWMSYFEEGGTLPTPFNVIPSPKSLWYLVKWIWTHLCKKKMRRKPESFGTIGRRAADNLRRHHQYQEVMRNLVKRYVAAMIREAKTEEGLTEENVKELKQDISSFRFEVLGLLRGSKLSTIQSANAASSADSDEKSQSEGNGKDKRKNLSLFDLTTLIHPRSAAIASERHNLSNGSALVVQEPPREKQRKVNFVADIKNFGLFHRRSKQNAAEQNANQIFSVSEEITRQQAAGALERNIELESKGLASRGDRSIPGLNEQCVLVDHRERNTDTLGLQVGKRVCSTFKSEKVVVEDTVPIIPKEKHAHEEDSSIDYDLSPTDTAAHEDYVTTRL

Sequence of Peroxisome proliferator-activated receptor gamma/Nuclear receptor coactivator 1 (P37231 whole entry): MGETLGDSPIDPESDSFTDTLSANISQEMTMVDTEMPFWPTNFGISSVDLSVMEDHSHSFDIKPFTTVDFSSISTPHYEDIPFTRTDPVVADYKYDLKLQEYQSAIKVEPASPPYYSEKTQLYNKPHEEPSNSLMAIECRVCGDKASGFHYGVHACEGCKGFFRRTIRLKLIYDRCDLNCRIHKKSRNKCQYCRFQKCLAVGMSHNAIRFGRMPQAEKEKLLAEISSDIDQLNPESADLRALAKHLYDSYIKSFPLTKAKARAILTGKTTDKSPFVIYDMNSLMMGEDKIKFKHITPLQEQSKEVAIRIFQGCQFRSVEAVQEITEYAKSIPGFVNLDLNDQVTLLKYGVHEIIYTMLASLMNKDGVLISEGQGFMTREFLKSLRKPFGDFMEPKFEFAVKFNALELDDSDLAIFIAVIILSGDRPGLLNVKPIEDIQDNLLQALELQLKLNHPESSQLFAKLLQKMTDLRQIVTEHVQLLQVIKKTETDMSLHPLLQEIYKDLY
Sequence of Peroxisome proliferator-activated receptor gamma/Nuclear receptor coactivator 1 (Q15788 whole entry, further chain): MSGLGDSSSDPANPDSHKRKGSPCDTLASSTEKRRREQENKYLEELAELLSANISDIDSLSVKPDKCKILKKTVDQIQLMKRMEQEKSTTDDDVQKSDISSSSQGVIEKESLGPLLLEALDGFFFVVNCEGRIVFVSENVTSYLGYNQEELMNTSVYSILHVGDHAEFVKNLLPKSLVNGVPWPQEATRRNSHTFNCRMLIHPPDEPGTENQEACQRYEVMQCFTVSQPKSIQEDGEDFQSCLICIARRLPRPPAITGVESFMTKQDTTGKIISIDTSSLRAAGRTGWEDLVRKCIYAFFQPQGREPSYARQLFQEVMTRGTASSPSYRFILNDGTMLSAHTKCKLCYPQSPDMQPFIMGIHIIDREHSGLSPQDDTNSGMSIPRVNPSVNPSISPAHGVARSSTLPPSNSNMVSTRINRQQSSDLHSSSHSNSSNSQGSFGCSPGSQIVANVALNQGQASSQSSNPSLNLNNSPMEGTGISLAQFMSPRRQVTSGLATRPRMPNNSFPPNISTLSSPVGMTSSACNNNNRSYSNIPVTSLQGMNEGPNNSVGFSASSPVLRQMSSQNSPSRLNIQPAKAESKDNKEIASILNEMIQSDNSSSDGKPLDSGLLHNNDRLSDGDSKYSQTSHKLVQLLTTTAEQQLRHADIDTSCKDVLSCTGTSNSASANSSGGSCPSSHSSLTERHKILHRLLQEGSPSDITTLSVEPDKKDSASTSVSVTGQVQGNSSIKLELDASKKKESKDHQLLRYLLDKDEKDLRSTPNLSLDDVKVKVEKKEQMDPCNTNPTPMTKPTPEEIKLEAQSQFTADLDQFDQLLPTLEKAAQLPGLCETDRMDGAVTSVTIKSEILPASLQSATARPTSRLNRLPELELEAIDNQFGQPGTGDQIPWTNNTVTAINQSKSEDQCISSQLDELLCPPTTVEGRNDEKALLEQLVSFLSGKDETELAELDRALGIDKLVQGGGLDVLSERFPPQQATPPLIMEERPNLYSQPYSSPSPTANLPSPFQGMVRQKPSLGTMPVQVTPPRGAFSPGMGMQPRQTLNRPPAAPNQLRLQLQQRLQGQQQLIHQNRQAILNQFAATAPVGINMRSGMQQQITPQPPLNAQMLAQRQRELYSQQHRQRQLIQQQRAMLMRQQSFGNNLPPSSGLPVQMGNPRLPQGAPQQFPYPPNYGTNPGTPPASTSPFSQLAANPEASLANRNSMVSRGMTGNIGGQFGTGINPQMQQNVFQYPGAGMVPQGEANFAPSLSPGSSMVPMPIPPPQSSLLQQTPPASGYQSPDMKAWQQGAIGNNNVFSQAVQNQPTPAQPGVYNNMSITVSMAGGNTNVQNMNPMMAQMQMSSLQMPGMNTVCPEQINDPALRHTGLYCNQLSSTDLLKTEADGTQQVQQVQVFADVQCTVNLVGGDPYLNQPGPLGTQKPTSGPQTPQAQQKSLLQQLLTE
Sequence of Peroxisome proliferator-activated receptor gamma/Nuclear receptor coactivator 3 (P37231 whole entry): as the sequence (P37231 whole entry) above
Sequence of Peroxisome proliferator-activated receptor gamma/Nuclear receptor coactivator 3 (Q9Y6Q9 whole entry, further chain): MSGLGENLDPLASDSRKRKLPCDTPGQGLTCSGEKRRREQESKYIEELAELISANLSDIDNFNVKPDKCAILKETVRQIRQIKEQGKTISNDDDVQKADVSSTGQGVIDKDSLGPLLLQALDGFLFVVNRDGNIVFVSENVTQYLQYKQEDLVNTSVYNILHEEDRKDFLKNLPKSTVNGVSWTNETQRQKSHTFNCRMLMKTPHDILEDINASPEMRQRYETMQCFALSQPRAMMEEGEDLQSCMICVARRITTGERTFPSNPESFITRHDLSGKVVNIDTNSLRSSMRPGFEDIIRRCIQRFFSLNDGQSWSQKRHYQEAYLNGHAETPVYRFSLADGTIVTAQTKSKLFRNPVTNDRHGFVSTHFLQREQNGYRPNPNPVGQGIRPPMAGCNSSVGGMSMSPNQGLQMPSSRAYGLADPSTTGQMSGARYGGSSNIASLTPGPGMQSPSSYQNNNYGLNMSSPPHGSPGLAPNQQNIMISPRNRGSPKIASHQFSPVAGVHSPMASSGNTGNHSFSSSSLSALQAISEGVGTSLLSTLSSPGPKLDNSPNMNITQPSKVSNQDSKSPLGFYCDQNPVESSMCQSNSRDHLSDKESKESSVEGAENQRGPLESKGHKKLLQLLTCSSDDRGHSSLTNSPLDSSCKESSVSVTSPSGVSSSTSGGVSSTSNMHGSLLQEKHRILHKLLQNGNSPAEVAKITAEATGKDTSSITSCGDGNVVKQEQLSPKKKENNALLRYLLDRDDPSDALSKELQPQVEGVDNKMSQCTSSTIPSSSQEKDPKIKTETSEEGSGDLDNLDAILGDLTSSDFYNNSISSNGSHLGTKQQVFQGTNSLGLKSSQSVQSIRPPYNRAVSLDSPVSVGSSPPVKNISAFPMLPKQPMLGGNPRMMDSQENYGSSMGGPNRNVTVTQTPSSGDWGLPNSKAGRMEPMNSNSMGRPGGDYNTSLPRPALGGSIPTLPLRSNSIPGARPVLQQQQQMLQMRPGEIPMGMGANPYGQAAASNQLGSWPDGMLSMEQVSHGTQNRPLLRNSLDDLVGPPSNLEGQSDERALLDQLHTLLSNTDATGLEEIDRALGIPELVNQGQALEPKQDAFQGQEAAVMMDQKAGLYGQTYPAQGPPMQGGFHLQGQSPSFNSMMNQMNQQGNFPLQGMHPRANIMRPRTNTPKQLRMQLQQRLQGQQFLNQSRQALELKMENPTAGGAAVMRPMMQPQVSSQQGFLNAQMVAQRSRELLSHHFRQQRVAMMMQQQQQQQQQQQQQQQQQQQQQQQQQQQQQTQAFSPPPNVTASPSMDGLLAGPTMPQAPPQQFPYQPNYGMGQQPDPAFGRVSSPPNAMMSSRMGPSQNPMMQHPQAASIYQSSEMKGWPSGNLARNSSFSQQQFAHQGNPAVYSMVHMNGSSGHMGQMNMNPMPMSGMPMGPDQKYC
T6 sequence (P11940 whole entry, the tested form may be a part): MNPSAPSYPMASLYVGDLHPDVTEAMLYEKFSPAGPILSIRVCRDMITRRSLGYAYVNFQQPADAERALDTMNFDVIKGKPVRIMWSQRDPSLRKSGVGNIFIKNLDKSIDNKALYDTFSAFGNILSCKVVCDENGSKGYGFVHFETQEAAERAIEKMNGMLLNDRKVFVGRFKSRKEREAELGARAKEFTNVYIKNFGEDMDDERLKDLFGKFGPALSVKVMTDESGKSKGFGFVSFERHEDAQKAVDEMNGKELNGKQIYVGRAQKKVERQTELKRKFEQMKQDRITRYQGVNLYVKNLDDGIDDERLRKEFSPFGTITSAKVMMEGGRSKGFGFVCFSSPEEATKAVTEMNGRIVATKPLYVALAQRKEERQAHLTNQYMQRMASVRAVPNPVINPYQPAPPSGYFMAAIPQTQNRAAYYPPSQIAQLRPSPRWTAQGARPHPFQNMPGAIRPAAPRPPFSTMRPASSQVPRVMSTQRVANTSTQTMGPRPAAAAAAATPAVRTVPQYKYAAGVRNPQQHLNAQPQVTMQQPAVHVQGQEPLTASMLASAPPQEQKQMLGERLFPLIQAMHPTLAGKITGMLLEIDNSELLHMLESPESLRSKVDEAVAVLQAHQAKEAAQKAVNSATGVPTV

O=S(=O)(C=C(c1ccccc1)c1ccccc1)c1ccccc1
EC50 (Ion channel NompC): > 29.9 µM (not active) | AC50 (Cytochrome P450 1A2): 28.2 µM (inconclusive) | EC50 (Mucolipin-3): 2.82 µM (active)

COc1ccc(-c2cc(-c3ccc(OC)cc3)[nH]n2)cc1
IC50 [1]: > 50 µM (active)

COc1ccccc1-n1nnnc1S(=O)(=O)Cc1ccc(Cl)cc1
EC50 [2]: 9.56 µM (active) | EC50 [3]: 17.3 µM (active) | AC50 [4]: 5.1 µM (active) | EC50 (Protein RecA): 1.94 µM (active) | EC50 [5]: 6.84 µM (active)

CCOC(=O)CSc1nc2c(sc(=S)n2-c2ccccc2OC)c(=O)n1Cc1ccco1
EC50 (Ion channel NompC): > 29.9 µM (not active) | IC50 [6]: > 66 µM (inactive) | EC50 (Mucolipin-3): 0.37 µM (active) | IC50 [7]: > 66 µM (inactive)

O=C(NC1=NCCS1)c1cc(-c2ccc(-c3ccccc3)cc2)nc2ccccc12
CC50 [8]: 21.9 µM (active) | IC50 (cells): 21.7 µM (active)

Cc1ccc(C(C)C)c(OCC(=O)Nc2ccccc2N2CCN(C)CC2)c1
EC50 [2]: > 20 µM (not active) | IC50 [9]: 6.82 µM (active) | IC50 [10]: 2.58 µM (active) | EC50 [5]: > 20 µM (not active)

Cc1nc(SCC(=O)Nc2ccc(F)cc2)c(C#N)c(C)c1CC(=O)c1ccc(Br)cc1
EC50 [11]: 9.89 µM (active) | CC50 [12]: 9.4 µM (active) | EC50 [13]: 13.8 µM (not active) | EC50 [14]: 24.8 µM (not active)

Cc1ccc(N2C(=O)C3CCC(c4ccccc4)CC3C2=O)cc1 (configuration not stated)
EC50 [11]: > 79.4 µM (not active) | EC50 [13]: > 79.4 µM (not active) | EC50 [14]: > 79.4 µM (not active)

Cc1sc(-n2c(C)cc(/C=N/n3cnnc3)c2C)c(C#N)c1C
EC50 [11]: > 79.4 µM (not active) | EC50 [13]: > 79.4 µM (not active) | EC50 [14]: > 79.4 µM (not active)

N#Cc1cccc2c1-c1ccccc1/C2=N/NC(N)=O
CC50 [15]: > 40 µM (active) | EC50 [16]: 0.0533 µM (active) | IC50 [1]: > 100 µM (active)
